Assays:
[1] = tested on: Chang liver (human normal liver cells); test: Cytotoxic activity against non-tumoral cell line, MTT assay; type: cell-based; settings: 72 h, mean ±SD
Experimental: The cytotoxic of compounds of formulas (I) and (II) 14-50 was assessed towards human cancer (HepG2, HeLa and Jurkat) cell lines (Table 3 below). Compounds presented on Table 4 were also tested against a non-tumoral liver cell line (Chang liver). The cell viability of HeLa, HepG2 and Chang liver cells was determined by the MTT assay. Briefly, exponentially growing cells were plated in 96-well plates at a density of 1×10^3, 8×10^3 and 5×10^3 cells/well respectively and incubated for 24 h before treatment. The grown medium was replaced with one contained the tested compounds dissolved in DMSO (final DMSO concentration <0.1%) at different concentrations, in triplicate wells, and cells were incubated for 72 h. After incubation with the compounds, the medium was removed and MTT solution (0.5 mg/ml, 100 μl) was added to each well and the plates were incubated again for 1 h. DMSO (100 μl) was then added to dissolve the formazan crystals and the plates were immediately read at 550 nm on an ELISA plate reader (Tecan Sunrise MR20-301, TECAN, Austria). For the Jurkat cells, the cell viability was determined by the XTT assay. Briefly, exponentially growing cells were plated in 96-well plates at a density of 5.5×10^3 cells/well, treated with different concentrations of compounds in triplicate and incubated for 72 h. After incubation with the compounds the XTT labeling mixture (100 μl) were added to each of the wells and after a 4 h incubation period the plates were read at 450 nm on an ELISA plate reader. […] Known for its cytotoxic activity, betulinic acid 2 was used as a positive control in this experimentation. […] All the IC50 results represent an average of a minimum of three experiments and were expressed as means±standard deviation (SD).

Chang liver cells = test: Cell cycle analysis by flow cytometry (FACS, PI), Chang liver; type: cell-based, human; settings: for effect on cell cycle in non-malignant cell line: IC80 values determined for HepG2, 72 h; for Phase of cell cycle (% of cells) G0/G1 / Phase of cell cycle (% of cells) G2/M / Phase of cell cycle (% of cells) S: compound at IC80 determined for HepG2, 72 h
Experimental: The effects on the cell cycle of some of these compounds were assessed through flow cytometry by using a fluorescence-activated cell sorter (FACS) (Table 5 below). For this assay 2.3×10^5 HepG2 cells/well, 2.9×10^4 HeLa cells/well, 1.6×10^5 Jurkat cells/well and 1.4×10^5 Chang liver cells/well were plated in 6 well plates with 2 ml of medium. The number of cells was determined by the relationship number of cells/area wells, considering the number of cells that were cultured in 96-well plates. […] Following 72 h. of incubation, cells were harvested by mild trypsinization, collected by centrifugation and stained in ice-cold Tris-buffered saline (TBS), containing 1 mg/ml PI, 10 mg/ml RNAse free of DNAase and 0.1% Igepal CA-630 for 1 h at 4° C. FACS analysis was carried out at 488 nm in an Epics XL flow cytometer (Coulter Corporation, Hialeah, Fla.). Data from 8×10^3 cells were collected and analyzed using Multicycle program (Phoenix Flow Systems, San Diego, Calif.). All experiments were performed three times with three replicates per experiment. […] To explore the selectivity of the effect on tumor cells, we also tested compounds 20, 44 and 46 in a non-malignant cell line.

[2] = tested on: Chang liver (normal liver cell line); test: Apoptosis, Annexin V-FITC/PI FACS, Chang liver; type: cell-based, human; settings: at the IC80 found for HepG2, FIG. 8
Experimental: Briefly, the same number of HepG2, HeLa, Jurkat and Chang liver cells as in the cell cycle assay were treated with compounds 20, 44, 46 and betulinic acid 2, as described above. Cells were collected washed once in ice-sold binding buffer (10 mM HEPES/NaOH, pH 7.4, 140 mM NaCl, 2.5 mM CaCl2) and ressuspended in the same buffer (95 μl) at a maximum, of 8×10^5 cells/ml. Annexin V-FITC conjugate (1 μg/ml) was added and incubated for 30 min at room temperature in darkness. Just before FACS analysis, cells were stained with 20 μl of […]. Approximately 1×10^4 cells were analysed for each histogram and experiments were performed three times with triplicates per experiment. FACS analysis using Annexin V-FITC staining and PI accumulation was used to differentiate early apoptotic cells (Annexin V^+ and PI^−) from necrotic or late apoptotic cells (Annexin V^+ and PI^+). […] In comparison with untreated controls, compound 44 treatment of HepG2 cells generated apoptosis in 53% of cells (42% of early apoptosis and 11% of late apoptosis), compound 46 generated apoptosis in 38% of cells (28% of early apoptosis plus 10% late apoptosis) and compound 20 induced apoptosis in 29% of cells (22% of early apoptosis plus 7% late apoptosis) (FIG. 8).

Jurkat cells = test: Cell cycle analysis by flow cytometry (FACS, PI), Jurkat; type: cell-based, human; settings: compound at its IC50, 72 h
Experimental: The effects on the cell cycle of some of these compounds were assessed through flow cytometry by using a fluorescence-activated cell sorter (FACS) (Table 5 below). For this assay 2.3×10^5 HepG2 cells/well, 2.9×10^4 HeLa cells/well, 1.6×10^5 Jurkat cells/well and 1.4×10^5 Chang liver cells/well were plated in 6 well plates with 2 ml of medium. The number of cells was determined by the relationship number of cells/area wells, considering the number of cells that were cultured in 96-well plates. […] Chang liver cells were incubated with compounds 20, […] at concentrations corresponding to the IC80 determined for HepG2 at 72 h. Following 72 h. of incubation, cells were harvested by mild trypsinization, collected by centrifugation and stained in ice-cold Tris-buffered saline (TBS), containing 1 mg/ml PI, 10 mg/ml RNAse free of DNAase and 0.1% Igepal CA-630 for 1 h at 4° C. FACS analysis was carried out at 488 nm in an Epics XL flow cytometer (Coulter Corporation, Hialeah, Fla.). Data from 8×10^3 cells were collected and analyzed using Multicycle program (Phoenix Flow Systems, San Diego, Calif.). All experiments were performed three times with three replicates per experiment. […] To explore the selectivity of the effect on tumor cells, we also tested compounds 20, 44 and 46 in a non-malignant cell line. Chang liver cells were treated with the compounds at the IC80 values determined for HepG2 after 72 h of incubation and no effect was observed, indicating a selective effect of these agents (Table 5 below).

[3] = tested on: HepG2 (human hepatocellular carcinoma); test: Cytotoxic activity, MTT assay, HepG2; type: cell-based; settings: 72 h, mean ±SD
Method in brief: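 HepG2, HeLa and Chang liver cells (8×10^3, 1×10^3, 5×10^3 cells/well) pre-grown 24 h, treated 72 h in triplicate (DMSO <0.1%), MTT 0.5 mg/ml 1 h, read 550 nm. Jurkat (5.5×10^3 cells/well) treated 72 h, XTT 4 h, read 450 nm. IC50 as mean±SD of at least three experiments.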

| Compound | IC50 [1] | effect on cell cycle in non-malignant cell line (Chang liver cells) | Phase of cell cycle (% of cells) G0/G1 (Chang liver cells) | Phase of cell cycle (% of cells) G2/M (Chang liver cells) | Phase of cell cycle (% of cells) S (Chang liver cells) | apoptosis induction in normal liver cell line [2] | Phase of cell cycle (% of cells) G0/G1 (Jurkat cells) | Phase of cell cycle (% of cells) G2/M (Jurkat cells) | Phase of cell cycle (% of cells) S (Jurkat cells) | IC50 [3] |
| --- | --- | --- | --- | --- | --- | --- | --- | --- | --- | --- |
| C=C(C)[C@@H]1CC[C@]2(CO)CC[C@]3(C)[C@H](CC[C@@H]4[C@@]5(C)CC[C@H](OC(=O)n6ccnc6)C(C)(C)[C@@H]5CC[C@]43C)[C@@H]12 [Compound 20, 28-hydroxy-lup-20(29)-en-3β-yl-1H-imidazole-1-carboxylate] | 60.7 ± 3.8 µM | no effect | 68.6 ± 4.2 % of cells | 9.3 ± 1.3 % of cells | 22.0 ± 3.0 % of cells | no effect | 48.6 ± 4.4 % of cells | 15.8 ± 2.1 % of cells | 35.6 ± 3.1 % of cells | 2 ± 0.4 µM |
| C=C(C)[C@@H]1CC[C@]2(C(=O)n3ccnc3)CC[C@]3(C)[C@H](CC[C@@H]4[C@@]5(C)CCC(=O)C(C)(C)[C@@H]5CC[C@]43C)[C@@H]12 [Compound 44, 28-(1H-imidazol-1-yl)-lup-20(29)-en-3,28-dione] | 48.8 ± 2.8 µM | no effect | 68.2 ± 2.9 % of cells | 8.6 ± 0.8 % of cells | 23.2 ± 2.5 % of cells | no effect | 52.7 ± 0.5 % of cells | 20.8 ± 1.1 % of cells | 26.6 ± 0.9 % of cells | 0.8 ± 0.05 µM |
| C=C(C)[C@@H]1CC[C@]2(C(=O)n3ccnc3)CC[C@]3(C)[C@H](CC[C@@H]4[C@@]5(C)C=CC(=O)C(C)(C)[C@@H]5CC[C@]43C)[C@@H]12 [Compound 46, 28-(1H-imidazol-1-yl)-lup-1,20 (29)-dien-3,28-dione] | 55.9 ± 4.6 µM | no effect | 68.2 ± 4.9 % of cells | 9.2 ± 1.4 % of cells | 22.6 ± 3.8 % of cells | no effect | 49.6 ± 2.6 % of cells | 20.7 ± 2.4 % of cells | 29.8 ± 0.8 % of cells | 1.7 ± 0.2 µM |

— patent publication US8969395B2, “Triterpenoid derivatives useful as antiproliferative agents” (Universidade de Coimbra, priority 2009, dated 2015)
